Results: patent US8569302B2, “Inhibitors of flaviviridae viruses” (Gilead Sciences, Inc., priority 2009, dated 2013)

tested on: human hepatoma Huh-7 cell line harboring a HCV replicon; experiment: HCV replicon assay (inhibition of viral replication, luciferase readout); format: cell-based; conditions: Hepatitis C virus, 72 h, Huh-7 HCV replicon cells, 3 days incubation
Summary of the method: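 Read-outs: luciferase luminescence for replication inhibition, corrected by ITMN-191 (100% inhibition) wells, and calcein AM fluorescence for cytotoxicity. Cells were treated for 3 days at 37 °C with ten 3-fold compound dilutions in 0.44% final DMSO. Percent inhibition relative to DMSO was fitted with a Hill equation to give EC50 and CC50.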

Going from `CC1CCC(C(=O)N(CCOc2ccccn2)c2cc(C#CC(C)(C)C)sc2C(=O)O)CC1` (stereo not shown) [Compound 139, 5-(3,3-dimethyl-but-1-ynyl)-3-{(4-methyl-cyclohexanecarbonyl)-[3-(pyridin-2-yloxy)-ethyl]-amino}-thiophene-2-carboxylic acid] to `CC(C)(C)C#Cc1cc(N(C(=O)[C@H]2CC[C@H](C)CC2)[C@H]2C[C@@H](Oc3ccccn3)C2)c(C(=O)O)s1` [Compound 146, 5-(3,3-Dimethylbut-1-ynyl)-3-(4-methyl-N-(3-(pyridin-2-yloxy)cyclobutyl)cyclohexanecarboxamido)thiophene-2-carboxylic acid], the inhibition at 2 µM rises from 96.4% to 99.2%.

Going from `C[C@@H](CCOc1cncnc1)N(c1cc(C#CC(C)(C)C)sc1C(=O)O)C(=O)[C@H]1CC[C@H](C)CC1` [Compound 143, 5-(3,3-dimethyl-but-1-ynyl)-3-{(trans-4-methyl-cyclohexanecarbonyl)-[1-(S)-methyl-3-(pyrimidin-5-yloxy)-propyl]-amino}-thiophene-2-carboxylic acid] to `CC(C)(C)C#Cc1cc(N(C(=O)[C@H]2CC[C@H](C)CC2)[C@H]2CC[C@H](Oc3cncnc3)CC2)c(C(=O)O)s1` [Compound 162, 5-(3,3-Dimethylbut-1-ynyl)-3-(4-methyl-N-(4-(pyrimidin-5-yloxy)cyclohexyl)cyclohexanecarboxamido)thiophene-2-carboxylic acid], the inhibition at 2 µM falls from 100% to 99.9%.

First: CCOc1cc(OCC[C@H](C)N(c2cc(C#CC(C)(C)C)sc2C(=O)O)C(=O)[C@H]2CC[C@H](C)CC2)c2ccc(OC)c(C)c2n1 [Compound 144, 5-(3,3-dimethyl-but-1-ynyl)-3-[[3-(2-ethoxy-7-methoxy-8-methyl-quinolin-4-yloxy)-1-(S)-methyl-propyl]-(4-methyl-cyclohexanecarbonyl)-amino]-thiophene-2-carboxylic acid]
Second: CN(C)c1ccc(O[C@H]2CC[C@H](N(c3cc(C#CC(C)(C)C)sc3C(=O)O)C(=O)[C@H]3CC[C@H](C)CC3)CC2)nn1 [Compound 160, 3-(N-(4-(6-(Dimethylamino)pyridazin-3-yloxy)cyclohexyl)-4-methylcyclohexanecarboxamido)-5-(3,3-dimethylbut-1-ynyl)thiophene-2-carboxylic acid]
The inhibition at 2 µM of the first is lower: 95.4% for the first, 99.9% for the second.

First: CC(C)(C)C#Cc1cc(N(C(=O)[C@H]2CC[C@H](C)CC2)[C@H]2CC[C@H](Oc3cc[nH]c(=O)n3)CC2)c(C(=O)O)s1 [Compound 147, 5-(3,3-Dimethyl-but-1-ynyl)-3-{(trans-4-methyl-cyclohexanecarbonyl)-[trans-4-(2-oxo-1,2-dihydro-pyrimidin-4-yloxy)-cyclohexyl]-amino}-thiophene-2-carboxylic acid]
Second: CC(C)(C)C#Cc1cc(N(C(=O)[C@H]2CC[C@H](C)CC2)[C@H]2CC[C@H](Oc3ccncn3)CC2)c(C(=O)O)s1 [Compound 163, 5-(3,3-Dimethylbut-1-ynyl)-3-(4-methyl-N-(4-(pyrimidin-4-yloxy)cyclohexyl)cyclohexanecarboxamido)thiophene-2-carboxylic acid]
The inhibition at 2 µM of the first is lower: 99.9% for the first, 100% for the second.

Going from `CCc1cnc(O[C@H]2CC[C@H](N(c3cc(C#CC(C)(C)C)sc3C(=O)O)C(=O)[C@H]3CC[C@H](C)CC3)CC2)nc1` [Compound 148, 5-(3,3-Dimethylbut-1-ynyl)-3-(N-(4-(5-ethylpyrimidin-2-yloxy)cyclohexyl)-4-methylcyclohexanecarboxamido)thiophene-2-carboxylic acid] to `CN(C)c1nc(O[C@H]2CC[C@H](N(c3cc(C#CC(C)(C)C)sc3C(=O)O)C(=O)[C@H]3CC[C@H](C)CC3)CC2)ncc1F` [Compound 151, 3-(N-(4-(4-(Dimethylamino)-5-fluoropyrimidin-2-yloxy)cyclohexyl)-4-methylcyclohexanecarboxamido)-5-(3,3-dimethylbut-1-ynyl)thiophene-2-carboxylic acid], the inhibition at 2 µM rises from 96.6% to 99.4%.

Compared with `CC(C)(C)C#Cc1cc(N(C(=O)[C@H]2CC[C@H](C)CC2)[C@H]2CC[C@H](Oc3cccnc3N3CCCC3)CC2)c(C(=O)O)s1` [Compound 149, 5-(3,3-Dimethylbut-1-ynyl)-3-(4-methyl-N-(4-(2-(pyrrolidin-1-yl)pyridin-3-yloxy)cyclohexyl)cyclohexanecarboxamido)thiophene-2-carboxylic acid], `CC(C)(C)C#Cc1cc(N(C(=O)[C@H]2CC[C@H](C)CC2)[C@H]2CC[C@H](Oc3cccc(N4CCCC4)n3)CC2)c(C(=O)O)s1` [Compound 152, 5-(3,3-Dimethylbut-1-ynyl)-3-(4-methyl-N-(4-(6-(pyrrolidin-1-yl)pyridin-2-yloxy)cyclohexyl)cyclohexanecarboxamido)thiophene-2-carboxylic acid] is lower in inhibition at 2 µM: 99% for the first, 73.7% for the second.

First: CC(C)(C)C#Cc1cc(N(C(=O)[C@H]2CC[C@H](C)CC2)[C@H]2CC[C@H](Oc3cc(N4CCCC4)ncn3)CC2)c(C(=O)O)s1 [Compound 150, 5-(3,3-Dimethylbut-1-ynyl)-3-(4-methyl-N-(4-(6-(pyrrolidin-1-yl)pyrimidin-4-yloxy)cyclohexyl)cyclohexanecarboxamido)thiophene-2-carboxylic acid]
Second: CC(C)(C)C#Cc1cc(N(C(=O)[C@H]2CC[C@H](C)CC2)[C@H]2CC[C@H](Oc3cncc(N4CCCC4)n3)CC2)c(C(=O)O)s1 [Compound 153, 5-(3,3-Dimethylbut-1-ynyl)-3-(4-methyl-N-(4-(6-(pyrrolidin-1-yl)pyrazin-2-yloxy)cyclohexyl)cyclohexanecarboxamido)thiophene-2-carboxylic acid]
The inhibition at 2 µM of the first is lower: 99.6% for the first, 100% for the second.

Going from `Cc1nsc(OC2CCC(N(c3cc(C#CC(C)(C)C)sc3C(=O)O)C(=O)[C@H]3CC[C@H](C)CC3)CC2)n1` (stereo partly shown) [Compound 154, 5-(3,3-Dimethylbut-1-ynyl)-3-(4-methyl-N-(4-(3-methyl-1,2,4-thiadiazol-5-yloxy)cyclohexyl)cyclohexanecarboxamido)thiophene-2-carboxylic acid] to `CC(C)(C)C#Cc1cc(N(C(=O)[C@H]2CC[C@H](C)CC2)[C@H]2CC[C@H](Oc3nc(CN4CCCC4)ns3)CC2)c(C(=O)O)s1` [Compound 161, 5-(3,3-Dimethylbut-1-ynyl)-3-(4-methyl-N-(4-(3-(pyrrolidin-1-ylmethyl)-1,2,4-thiadiazol-5-yloxy)cyclohexyl)cyclohexanecarboxamido)thiophene-2-carboxylic acid], the inhibition at 2 µM rises from 99.7% to 99.9%.

`CC(C)(C)C#Cc1cc(N(C(=O)[C@H]2CC[C@H](C)CC2)C2CCC(Oc3nc(CN4CCCC4)cs3)CC2)c(C(=O)O)s1` (stereo partly shown) [Compound 155, 5-(3,3-Dimethylbut-1-ynyl)-3-(4-methyl-N-(4-(4-(pyrrolidin-1-ylmethyl)thiazol-2-yloxy)cyclohexyl)cyclohexanecarboxamido)thiophene-2-carboxylic acid] and `CN(C)Cc1csc(OC2CCC(N(c3cc(C#CC(C)(C)C)sc3C(=O)O)C(=O)[C@H]3CC[C@H](C)CC3)CC2)n1` (stereo partly shown) [Compound 156, 3-(N-(4-(4-((Dimethylamino)methyl)thiazol-2-yloxy)cyclohexyl)-4-methylcyclohexanecarboxamido)-5-(3,3-dimethylbut-1-ynyl)thiophene-2-carboxylic acid] are the same in inhibition at 2 µM: 100% for the first, 100% for the second.

`CC(C)(C)C#Cc1cc(N(C(=O)[C@H]2CC[C@H](C)CC2)C2CCC(Oc3cc[n+]([O-])cc3)CC2)c(C(=O)O)s1` (stereo partly shown) [Compound 157, 5-(3,3-Dimethylbut-1-ynyl)-3-(4-methyl-N-(4-(pyridin-4-yloxy-N-oxide)cyclohexyl)cyclohexanecarboxamido)thiophene-2-carboxylic acid] and `CN(C)c1cc(O[C@H]2CC[C@H](N(c3cc(C#CC(C)(C)C)sc3C(=O)O)C(=O)[C@H]3CC[C@H](C)CC3)CC2)ncn1` [Compound 158, 3-(N-(4-(6-(Dimethylamino)pyrimidin-4-yloxy)cyclohexyl)-4-methylcyclohexanecarboxamido)-5-(3,3-dimethylbut-1-ynyl)thiophene-2-carboxylic acid] are the same in inhibition at 2 µM: 99.9% for the first, 99.9% for the second.

Going from `CC(C)(C)C#Cc1cc(N(C(=O)[C@H]2CC[C@H](C)CC2)[C@H]2CC[C@H](Oc3ccc(N4CCCC4)nn3)CC2)c(C(=O)O)s1` [Compound 159, 5-(3,3-Dimethylbut-1-ynyl)-3-(4-methyl-N-(4-(6-(pyrrolidin-1-yl)pyridazin-3-yloxy)cyclohexyl)cyclohexanecarboxamido)thiophene-2-carboxylic acid] to `CC(C)(C)C#Cc1cc(N(C(=O)[C@H]2CC[C@H](C)CC2)[C@H]2CC[C@H](Oc3cc(C(=O)N4CCCC4)ccn3)CC2)c(C(=O)O)s1` [Compound 166, Sodium 5-(3,3-dimethylbut-1-ynyl)-3-(4-methyl-N-(4-(4-(pyrrolidine-1-carbonyl)pyridin-2-yloxy)cyclohexyl)cyclohexanecarboxamido)thiophene-2-carboxylate], the inhibition at 2 µM rises from 99.8% to 99.9%.

`CN1CCC(NC(=O)c2ccnc(O[C@H]3CC[C@H](N(c4cc(C#CC(C)(C)C)sc4C(=O)O)C(=O)[C@H]4CC[C@H](C)CC4)CC3)c2)CC1` [Compound 167, Sodium 3-(N-(4-(4-((1-methylpiperidin-4-yl)carbamoyl)pyridin-2-yloxy)cyclohexyl)-4-methylcyclohexanecarboxamido)-5-(3,3-dimethylbut-1-ynyl)thiophene-2-carboxylate] and `CC(C)(C)C#Cc1cc(N(C(=O)[C@H]2CC[C@H](C)CC2)[C@H]2CC[C@H](Oc3cc(C(=O)N4CCC4)ccn3)CC2)c(C(=O)O)s1` [Compound 168, Sodium 3-(N-(4-(4-(azetidine-1-carbonyl)pyridin-2-yloxy)cyclohexyl)-4-methylcyclohexanecarboxamido)-5-(3,3-dimethylbut-1-ynyl)thiophene-2-carboxylate] are the same in inhibition at 2 µM: 99.9% for the first, 99.9% for the second.

same assay, conditions: Huh-7 HCV replicon cells, 3 days incubation

`CC(C)(C)C#Cc1cc(N(C(=O)[C@H]2CC[C@H](C)CC2)[C@H]2C[C@@H](Oc3ccc[n+]([O-])c3)C2)c(C(=O)O)s1` [Compound 145, 5-(3,3-Dimethyl-but-1-ynyl)-3-{(trans-4-methyl-cyclohexanecarbonyl)-[cis-3-(pyridin-3-yloxy-N-oxide)-cyclobutyl]-amino}-thiophene-2-carboxylic acid] was tested, and the “% inhibition at 2μM” value was 99.5%.
